Columns and labels:
Test in all cases: relative viability (nuclei count vs DMSO), 5 days (fraction); higher = more cells survive
[1] = compound: CCn1c(-c2nonc2N)nc2cnc(Oc3cccc(NC(=O)c4ccc(OCCN5CCOCC5)cc4)c3)cc21 + Nc1nc2[nH]cc(CCc3ccc(C(=O)N[C@@H](CCC(=O)O)C(=O)O)cc3)c2c(=O)[nH]1 [Pemetrexed] (partner 0.2 µM)
Summary of the method: (§1)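 Lung cancer cell lines were seeded in 1536-well plates and dosed by pin tool the next day, with either a single drug or a fixed anchor-drug dose combined with five library-drug doses (not always all listed) spaced in √10 steps. Five days later, one step fixed the cells and stained their nuclei (final 0.05% Triton X-100, 1% formaldehyde, 1 ug/ml Hoechst), and nuclei were counted on 4× images. Relative viability is the nuclei count in treated wells divided by the count in vehicle wells, and each value is the median of duplicate plates.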

Mirin + Bortezomib = compound: N=C1NC(=O)/C(=C/c2ccc(O)cc2)S1 [Mirin] + CC(C)C[C@H](NC(=O)[C@H](Cc1ccccc1)NC(=O)c1cnccn1)B(O)O [Bortezomib] (partner 0.002 µM)
Summary of the method: as §1

Mirin + Lapatinib = compound: N=C1NC(=O)/C(=C/c2ccc(O)cc2)S1 [Mirin] + CS(=O)(=O)CCNCc1ccc(-c2ccc3ncnc(Nc4ccc(OCc5cccc(F)c5)c(Cl)c4)c3c2)o1 [Lapatinib] (partner 2 µM)
Summary of the method: as §1

Mirin + Tozasertib = compound: N=C1NC(=O)/C(=C/c2ccc(O)cc2)S1 [Mirin] + Cc1cc(Nc2cc(N3CCN(C)CC3)nc(Sc3ccc(NC(=O)C4CC4)cc3)n2)n[nH]1 [Tozasertib] (partner 0.1 µM)
Summary of the method: as §1

Row | Cell Line | relative viability ([1]; first compound 0.04 µM) | relative viability ([1]; first compound 0.1265 µM) | relative viability ([1]; first compound 0.4 µM) | relative viability ([1]; first compound 1.265 µM) | relative viability ([1]; first compound 4 µM) | relative viability (Mirin + Bortezomib; first compound 0.25 µM) | relative viability (Mirin + Bortezomib; first compound 0.7906 µM) | relative viability (Mirin + Bortezomib; first compound 2.5 µM) | relative viability (Mirin + Bortezomib; first compound 7.906 µM) | relative viability (Mirin + Bortezomib; first compound 25 µM) | relative viability (Mirin + Lapatinib; first compound 0.25 µM) | relative viability (Mirin + Lapatinib; first compound 0.7906 µM) | relative viability (Mirin + Lapatinib; first compound 2.5 µM) | relative viability (Mirin + Lapatinib; first compound 7.906 µM) | relative viability (Mirin + Lapatinib; first compound 25 µM) | relative viability (Mirin + Tozasertib; first compound 0.25 µM) | relative viability (Mirin + Tozasertib; first compound 0.7906 µM) | relative viability (Mirin + Tozasertib; first compound 2.5 µM) | relative viability (Mirin + Tozasertib; first compound 7.906 µM) | relative viability (Mirin + Tozasertib; first compound 25 µM)
1 | NCI-H520 | 1.01 | 0.662 | 0.634 | 0.372 | 0.336 | 0.503 | 0.13 | 0.632 | 0.355 | 0.358 | 0.97 | 0.605 | 0.857 | 0.551 | 0.391 | 0.407 | 0.5 | 0.469 | 0.47 | 0.352
2 | LCLC-97TM1 | 0.228 | 0.196 |  | 0.192 | 0.18 | 0.589 |  | 0.582 | 0.278 | 0.868 | 1.04 | 0.594 | 0.857 | 0.867 | 1 | 0.191 | 0.151 | 0.19 | 0.138 | 0.122
3 | COR-L23 | 0.211 | 0.19 | 0.194 | 0.164 | 0.123 | 1.1 | 1.08 | 1.03 | 1.06 | 0.968 | 0.796 | 1.08 | 0.907 | 0.999 | 0.914 | 0.162 | 0.213 | 0.17 | 0.15 | 0.132
4 | NCI-H1355 | 1.12 | 1.05 | 0.769 | 0.835 | 0.581 | 1.3 | 1.19 | 1.16 | 1.23 | 1.38 | 1.01 | 0.961 | 1.01 | 1.1 | 1.11 | 0.526 | 0.637 | 0.533 | 0.394 | 0.272
5 | NCI-H1666 | 0.875 | 0.859 | 0.926 | 0.828 | 0.606 | 0.883 | 0.873 | 0.976 | 0.513 | 0.479 | 0.683 | 0.381 | 0.638 | 0.444 | 0.443 | 0.625 | 0.621 | 0.582 | 0.519 | 0.518
6 | EPLC-272H | 0.392 | 0.328 | 0.253 | 0.239 | 0.119 | 0.962 |  | 1.04 | 0.714 | 0.826 | 0.9 |  | 0.886 | 0.83 | 0.664 | 0.267 |  | 0.262 | 0.127 | 0.15
7 | NCI-H1651 | 0.714 | 0.693 | 0.578 | 0.312 | 0.471 | 0.912 | 0.959 | 0.931 | 0.854 | 0.916 | 0.882 | 0.832 | 0.938 | 0.711 | 0.824 | 0.667 | 0.788 | 0.622 | 0.489 | 0.587
8 | NCI-H2087 | 0.777 | 0.653 | 0.642 | 0.603 | 0.596 | 0.885 | 0.826 | 0.87 | 0.924 | 1.16 | 1.09 | 1.07 | 0.91 | 1.12 | 1.14 | 0.26 | 0.248 | 0.292 | 0.22 | 0.19
9 | HCC-44 | 0.62 | 0.652 | 0.547 | 0.678 | 0.425 | 0.876 | 0.955 | 0.846 | 0.856 | 1.13 | 1.07 | 1.12 | 1.05 | 1.04 | 1.28 | 1.06 | 0.433 | 0.93 | 0.824 | 0.404
10 | RERF-LC-KJ | 0.471 | 0.439 | 0.418 | 0.384 | 0.415 | 1.22 | 1.25 | 1.07 | 1.18 | 1.2 | 0.972 | 0.968 | 0.891 | 0.835 | 0.95 | 0.488 | 0.524 | 0.467 | 0.424 | 0.385
11 | LOU-NH91 | 0.371 | 0.355 | 0.355 | 0.288 | 0.356 | 0.417 |  | 0.47 | 0.455 | 0.503 | 0.786 |  | 0.782 | 0.774 | 0.702 | 0.661 | 0.614 | 0.673 | 0.465 | 0.42
12 | PC-3 [JPC-3] | 1.14 | 1.03 | 1.05 | 0.662 | 0.928 | 0.768 | 0.889 | 0.841 | 0.941 | 0.967 | 0.52 | 0.469 | 0.462 | 0.455 | 0.491 | 0.905 | 0.978 | 0.893 | 0.879 | 0.899
13 | NCI-H2126 | 0.8 | 0.715 | 0.51 | 0.765 | 0.642 | 1.12 | 1.11 | 1.12 | 1.07 | 1.2 | 0.77 | 0.735 | 0.765 | 0.717 | 0.621 | 0.85 | 0.834 | 0.92 | 0.832 | 0.474
14 | LU99A | 0.227 | 0.167 | 0.168 | 0.163 | 0.158 | 1.07 | 0.93 | 1.17 | 1 | 0.968 | 1.05 | 0.79 | 0.888 | 0.809 | 0.749 | 0.241 | 0.216 | 0.27 | 0.207 | 0.18
15 | BEN | 0.725 | 0.647 | 0.395 | 0.412 | 0.534 | 0.638 | 0.779 | 0.967 | 0.625 | 0.548 | 0.507 | 0.942 | 0.721 | 0.656 | 0.457 | 0.438 | 0.584 | 0.523 | 0.553 | 0.456
16 | SW 1573 | 0.913 | 0.821 | 0.535 | 0.32 | 0.261 | 1.01 | 1.06 | 1.14 | 0.95 | 0.855 | 1.13 | 1.16 | 1.09 | 0.952 | 0.908 | 0.181 | 0.195 | 0.234 | 0.188 | 0.108

Reference: the supplement of paper PMC10307832
